Data set [1] is described as follows: Solubility of the compound in DMSO at 50 to 100 uM incubated for 72 hrs. It counts as physicochemical. To be noted: dose 50-100 µM.
Data set [2] deals with T1, Stimulator of interferon genes protein (Homo sapiens, UniProt Q86WV6). Put plainly: Binding affinity to recombinant human His-tagged STING by measuring fluorescent signals in the presence of d2 labelled STING wild type ligand by HTRF based microplate reader analysis. Background: Time-resolved FRET reads energy transfer from a long-lived donor to a nearby acceptor.
T1 sequence (Q86WV6 whole entry): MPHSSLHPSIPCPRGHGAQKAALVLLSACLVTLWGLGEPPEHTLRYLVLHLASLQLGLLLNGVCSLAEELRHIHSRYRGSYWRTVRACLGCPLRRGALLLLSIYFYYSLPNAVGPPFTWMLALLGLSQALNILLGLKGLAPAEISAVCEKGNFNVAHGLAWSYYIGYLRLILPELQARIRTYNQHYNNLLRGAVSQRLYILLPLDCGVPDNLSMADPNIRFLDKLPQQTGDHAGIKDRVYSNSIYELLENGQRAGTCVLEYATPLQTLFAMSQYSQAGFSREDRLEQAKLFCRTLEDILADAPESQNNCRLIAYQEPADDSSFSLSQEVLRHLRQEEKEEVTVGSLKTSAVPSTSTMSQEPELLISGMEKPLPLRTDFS
Data set [3] in a line: Volume of distribution at steady state in BALB/c mouse at 3 mg/kg, iv by LC-MS/MS analysis. In kind it is ADME, organism-based. To be noted: in vivo, read-out: Vdss.
The nature of data set [4]: Cytotoxicity against human THP1-Dual KO-STING cells assessed as residual cell viability by CellTiter96 Aqueous One Solution Cell Proliferation Assay. Further details: concentration or dose not given beside the values. It counts as functional.
Data set [5] addresses T1, Stimulator of interferon genes protein. To be noted: THP1-Dual, filed as activator, dose 50.0 µM, time 24.0 hrs.
The nature of data set [6]: AUCinfinity in BALB/c mouse at 3 mg/kg, iv by LC-MS/MS analysis. It counts as ADME, organism-based. Also noted: time infinity, dose 3 mg/kg, route iv. To be noted: BALB/c, in vivo.
Data set [7] can be described thus: Activation of IRF-mediated immune response in human THP1-Dual KO-STING cells co-expressing ISRE reporter assessed as normalized luciferase gene expression by measuring relative luciferase units at 50 uM incubated for 24 hrs by QUANTI Luc based microplate reader method. It counts as functional.
Data set [8] is described as follows: AUClast in BALB/c mouse at 3 mg/kg, iv by LC-MS/MS analysis. It counts as ADME, organism-based. Further details: time 0 - last, dose 3 mg/kg, route iv. To be noted: in vivo.
Data set [9] can be described thus: Clearance in BALB/c mouse at 3 mg/kg, iv by LC-MS/MS analysis. It counts as ADME, organism-based. To be noted: BALB/c, in vivo.
Data set [10] concerns THP1-Dual. Put plainly: Cytotoxicity against human wild type THP1-Dual cells assessed as residual cell viability by CellTiter96 Aqueous One Solution Cell Proliferation Assay. Further details: concentration or dose not given beside the values. It counts as functional.
Data set [11] can be described thus: Terminal half life in BALB/c mouse at 3 mg/kg, iv by LC-MS/MS analysis. In kind it is ADME, organism-based. As to conditions: in vivo, read-out: beta t1/2 (converted).
Data set [12] relates to PBMC. Nature of the data set: Induction of IFN-beta secretion in human PBMC cells at 1.6 to 1000 nM by ELISA. In kind it is functional, cell-based. As to conditions: dose 1.6-1000 nM. (In general: In an ELISA, binding on a coated surface is turned into a signal by an enzyme label.)
The subject of data set [13] is RAW264.7. Put plainly: Induction of IP-10 secretion in mouse RAW264.7 cells at 0.64 to 10000 nM by ELISA. As to conditions: dose 0.64-10000 nM. It counts as functional, cell-based.
The nature of data set [14]: Toxicity in BALB/c mouse xenografted with mouse CT26 cells assessed as effect on body weight at 1.5 mg/kg, iv measured after 8 days. It counts as organism-based. As to conditions: in vivo, 192 h, time 8 day.
Data set [15] concerns RAW264.7. Put plainly: Activation of NF-kappaB mediated pro-inflammatory effector proteins in mouse RAW264.7 cells at 100 to 500 nM for incubated for 3 hrs by western blot analysis. As to conditions: filed as activator, dose 100-500 nM. In kind it is cell-based.
The nature of data set [16]: Toxicity in BALB/c mouse xenografted with mouse CT26 cells assessed as body weight loss at 0.015 mg/kg, iv measured after 8 days. In kind it is organism-based. To be noted: in vivo, 192 h, time 8 day.
The test system of data set [17] is CT26. Put plainly: Antitumor immunity activity against mouse CT26 cells xenografted in BALB/c mouse model assessed as tumor growth inhibition at 1.5 mg/kg, iv measured after 8 days. It counts as functional, organism-based. To be noted: time 8.0 day.
In data set [18] the test system is CT26. Put plainly: Immunological memory derived cancer inhibition in mouse CT26 cells inoculated in 1.5 mg/kg, iv for 8 days treated/cured BALB/c mouse model assessed as tumor recurrence followed by re-inoculation of cells. In kind it is functional, organism-based. To be noted: time 8.0 day.
Data set [19] has as its system RAW264.7. Nature of the data set: Induction of TNF-alpha secretion in mouse RAW264.7 cells at 0.625 uM incubated for 24 hrs by ELISA. In kind it is functional, cell-based.
Data set [20] deals with RAW264.7. Put plainly: Induction of IL-6 secretion in mouse RAW264.7 cells at 2 uM incubated for 24 hrs by ELISA. It counts as functional, cell-based.
A short description of data set [21]: Induction of IP-10 secretion in human THP-1 cells assessed as maximal efficacy by ELISA relative to control. It counts as functional.
Data set [22] concerns CT26. Nature of the data set: Antitumor immunity activity against mouse CT26 cells xenografted in BALB/c mouse model assessed as tumor growth inhibition at 0.015 mg/kg, iv measured after 8 days. In kind it is functional, organism-based. As to conditions: time 8.0 day.
Data set [23] concerns the target Nuclear factor NF-kappa-B complex (Homo sapiens) (UniProt Q00653+P19838+Q04206). Nature of the data set: Activation of NF-kappaB mediated pro-inflammatory effector proteins in human THP-1 cells at 2 to 10 nM incubated for 4 hrs by western blot analysis. In kind it is cell-based. To be noted: filed as activator, dose 2-10 nM. For orientation: A western blot detects proteins with antibodies after separation by electrophoresis.

In data set [24] the target is T2, Stimulator of interferon genes protein (Mus musculus) (UniProt Q3TBT3).
T2 sequence (whole entry): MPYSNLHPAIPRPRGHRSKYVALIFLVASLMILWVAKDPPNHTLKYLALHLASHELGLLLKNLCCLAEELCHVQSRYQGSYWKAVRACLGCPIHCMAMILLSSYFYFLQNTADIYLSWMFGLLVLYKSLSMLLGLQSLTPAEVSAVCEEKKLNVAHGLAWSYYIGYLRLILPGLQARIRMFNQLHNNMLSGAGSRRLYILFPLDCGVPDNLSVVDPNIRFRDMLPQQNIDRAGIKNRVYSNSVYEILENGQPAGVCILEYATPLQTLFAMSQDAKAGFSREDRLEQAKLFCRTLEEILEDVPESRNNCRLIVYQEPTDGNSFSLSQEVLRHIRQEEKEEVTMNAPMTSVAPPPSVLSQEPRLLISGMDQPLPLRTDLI
Put plainly: Activation of STING mediated immune response in mouse RAW264.7 cells assessed as induction of IP-10 secretion at 5000 to 20000 nM measured after 24 hrs by ELISA. It counts as cell-based. To be noted: filed as activator, dose 5000-20000 nM.

Data set [25] deals with T1, Stimulator of interferon genes protein. Nature of the data set: Activation of STING mediated immune response in human THP-1 cells assessed as induction of IP-10 secretion at 500 to 5000 nM measured after 24 hrs by ELISA. As to conditions: filed as activator, dose 500-5000 nM. It counts as cell-based.
Data set [26] addresses T2, Stimulator of interferon genes protein (Mus musculus). Nature of the data set: Activation of STING mediated immune response in mouse RAW264.7 cells assessed as induction of IFNbeta secretion at 5000 to 20000 nM measured after 24 hrs by ELISA. In kind it is cell-based. To be noted: filed as activator, dose 5000-20000 nM.
For data set [27], the target named is T1, Stimulator of interferon genes protein. Nature of the data set: Activation of STING mediated immune response in human THP-1 cells assessed as induction of IFNbeta secretion at 500 to 5000 nM measured after 24 hrs by ELISA. It counts as cell-based. As to conditions: filed as activator, dose 500-5000 nM.

pIC50: −log10 of the molar value. The source made the active and inactive calls. The calls are words filed in the database; no cut-off is given here.

As usually defined, the pIC50 is −log10 of the IC50, conventionally taken in molar units. Broadly, the AUC(0-inf) is total exposure, with the tail of the curve extrapolated. As a reminder, the AUC(0-t) is the area under the concentration-time curve up to a stated or last time point. The clearance is the volume of plasma or blood freed of the substance per unit of time. A word on the Emax: it is the maximal effect, on the per cent scale that the assay sets.

Nuclear factor NF-kappa-B complex (Homo sapiens), sequence (P19838 whole entry, looked up): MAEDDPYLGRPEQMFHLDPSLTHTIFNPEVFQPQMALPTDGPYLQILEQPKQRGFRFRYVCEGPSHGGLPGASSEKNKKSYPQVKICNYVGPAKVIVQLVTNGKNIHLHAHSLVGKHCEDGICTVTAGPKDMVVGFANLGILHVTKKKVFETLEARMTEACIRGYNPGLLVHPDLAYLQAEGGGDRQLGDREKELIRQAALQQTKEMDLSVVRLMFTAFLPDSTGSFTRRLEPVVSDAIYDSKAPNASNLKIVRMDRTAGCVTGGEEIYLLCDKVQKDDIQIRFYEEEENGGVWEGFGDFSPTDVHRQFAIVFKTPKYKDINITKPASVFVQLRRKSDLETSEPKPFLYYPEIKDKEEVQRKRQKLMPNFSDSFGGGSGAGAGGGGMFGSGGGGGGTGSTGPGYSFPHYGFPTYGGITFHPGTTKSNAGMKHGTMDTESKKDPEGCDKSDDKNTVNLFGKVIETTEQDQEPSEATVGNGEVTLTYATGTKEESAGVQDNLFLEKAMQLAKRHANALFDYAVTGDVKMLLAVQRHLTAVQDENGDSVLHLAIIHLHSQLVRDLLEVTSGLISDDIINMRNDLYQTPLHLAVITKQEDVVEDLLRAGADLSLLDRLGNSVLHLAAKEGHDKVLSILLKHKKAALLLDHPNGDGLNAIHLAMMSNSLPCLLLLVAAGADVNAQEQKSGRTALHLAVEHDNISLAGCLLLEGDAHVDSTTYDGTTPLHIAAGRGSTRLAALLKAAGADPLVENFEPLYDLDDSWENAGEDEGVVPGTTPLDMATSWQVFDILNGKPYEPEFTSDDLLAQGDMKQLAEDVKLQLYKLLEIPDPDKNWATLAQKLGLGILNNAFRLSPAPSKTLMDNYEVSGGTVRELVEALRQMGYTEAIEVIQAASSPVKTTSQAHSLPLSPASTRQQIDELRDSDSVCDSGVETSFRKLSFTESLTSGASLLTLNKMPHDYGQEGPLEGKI
Nuclear factor NF-kappa-B complex (Homo sapiens), sequence (Q00653 whole entry, looked up): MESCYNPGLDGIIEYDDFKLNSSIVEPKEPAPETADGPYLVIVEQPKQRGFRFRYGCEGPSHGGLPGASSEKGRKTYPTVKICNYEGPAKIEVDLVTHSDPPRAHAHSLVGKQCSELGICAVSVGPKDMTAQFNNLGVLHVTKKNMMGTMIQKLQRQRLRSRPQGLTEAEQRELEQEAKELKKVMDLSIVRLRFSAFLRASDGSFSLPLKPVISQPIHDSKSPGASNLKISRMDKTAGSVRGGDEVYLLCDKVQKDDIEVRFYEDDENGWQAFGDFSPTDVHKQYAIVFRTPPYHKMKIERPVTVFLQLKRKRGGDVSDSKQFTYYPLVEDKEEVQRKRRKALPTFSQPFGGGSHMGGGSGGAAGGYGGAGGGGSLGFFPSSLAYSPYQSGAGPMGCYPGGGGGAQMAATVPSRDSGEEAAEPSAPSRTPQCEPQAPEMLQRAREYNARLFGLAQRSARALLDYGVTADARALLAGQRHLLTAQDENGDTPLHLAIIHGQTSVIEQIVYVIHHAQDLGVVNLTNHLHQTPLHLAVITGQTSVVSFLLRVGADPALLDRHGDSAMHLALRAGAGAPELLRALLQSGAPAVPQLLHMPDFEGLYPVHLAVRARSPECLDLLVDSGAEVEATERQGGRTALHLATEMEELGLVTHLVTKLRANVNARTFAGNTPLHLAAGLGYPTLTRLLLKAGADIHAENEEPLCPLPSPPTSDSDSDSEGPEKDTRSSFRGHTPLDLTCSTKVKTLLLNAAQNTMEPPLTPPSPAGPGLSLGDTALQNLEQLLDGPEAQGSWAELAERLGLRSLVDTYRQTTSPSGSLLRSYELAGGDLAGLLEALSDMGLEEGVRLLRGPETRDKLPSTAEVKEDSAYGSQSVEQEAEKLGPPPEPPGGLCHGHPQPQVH
Nuclear factor NF-kappa-B complex (Homo sapiens), sequence (Q04206 whole entry, looked up): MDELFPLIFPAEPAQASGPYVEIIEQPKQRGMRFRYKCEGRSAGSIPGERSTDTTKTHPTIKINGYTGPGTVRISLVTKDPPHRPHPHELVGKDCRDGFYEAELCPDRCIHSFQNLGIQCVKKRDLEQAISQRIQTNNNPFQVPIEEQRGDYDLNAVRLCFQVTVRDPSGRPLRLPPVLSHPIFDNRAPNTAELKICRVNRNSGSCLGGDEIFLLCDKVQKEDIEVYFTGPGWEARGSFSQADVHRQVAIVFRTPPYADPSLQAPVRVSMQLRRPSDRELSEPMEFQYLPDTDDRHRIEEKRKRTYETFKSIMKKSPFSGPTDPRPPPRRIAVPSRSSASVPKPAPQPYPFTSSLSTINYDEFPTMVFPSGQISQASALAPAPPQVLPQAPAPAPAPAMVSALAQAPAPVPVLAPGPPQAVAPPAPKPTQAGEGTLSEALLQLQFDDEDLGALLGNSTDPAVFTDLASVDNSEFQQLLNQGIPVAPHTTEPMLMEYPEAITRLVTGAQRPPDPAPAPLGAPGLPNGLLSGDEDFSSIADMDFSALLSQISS

Take `CCn1nc(C)cc1C(=O)Nc1nc2cc(C(N)=O)ccc2n1CCCCn1c(NC(=O)c2cc(C)nn2CC)nc2cc(C(N)=O)ccc21`: in data set [1], the solubility result was “Insoluble”. For the same compound, the negative logarithm of the IC50 (pIC50) in data set [2] was 8.21.

In the case of `CCn1nc(C)cc1C(=O)NCCCCn1c(NC(=O)c2cc(C)nn2CC)nc2cc(C(N)=O)ccc21`, in data set [3], the Vd was 1.8 L/kg. The Activity is given as 88.2% in data set [4] and 68.2% in [10]. Also, the RLU in data set [5] stood at 104; in data set [7], 0.9. The same compound showed a total exposure AUC(0-inf) in [6] of 320 ng·h/mL. The area under the curve AUC(0-t) in data set [8] was found to be 310 ng·h/mL. This compound also gave a clearance in [9] of 158 mL/min/kg. Further, the half-life in data set [11] was 0.59 h.

In the case of `CCn1nc(C)cc1C(=O)NCCCOc1cc(C(N)=O)cc2nc(NC(=O)c3cc(C)nn3CC)n(C/C=C/Cn3c(NC(=O)c4cc(C)nn4CC)nc4cc(C(N)=O)cc(OC)c43)c12`, in data set [3], the Vd was 1.81 L/kg. In addition, the outcome in [12], in data set [13], in data set [15], in [17], in data set [18] and in data set [19] was Active. In addition, the result in [20], in data set [22] and in data set [23] was Active. Further, the Activity entry in data set [14] and in [16] was “Non-Toxic” each time. Also, the RLU in data set [5] was 100; in data set [7] it was 0.8. For the same compound, in [6], the AUC(0-inf) worked out at 4300 ng·h/mL. The same compound displayed an AUC(0-t) in [8] of 4240 ng·h/mL. The same compound gave a clearance in [9] of 12 mL/min/kg. For the same compound, in [11], the half-life was 1.75 h. Also, in [21], the Emax is 325%.

Turning to `CCn1nc(C)cc1C(=O)/N=c1\[nH]c2cc(C(N)=O)cc(OC)c2n1C/C=C/Cn1/c(=N/C(=O)c2cc(C)nn2CC)[nH]c2cc(C(N)=O)cc(OCCCN3CCOCC3)c21`, the RLU in [5] came out at 68.6; in [7] it was 0.7. Moreover, the outcome in [15] and in data set [23] was Active. Besides, in [10], the Activity came to 83.1%. The maximal response (Emax) in data set [21] stood at 136%.

As to `CCn1nc(C)cc1C(=O)/N=c1\[nH]c2cc(C(N)=O)ccc2n1CCCCn1/c(=N/C(=O)c2cc(C)nn2CC)[nH]c2cc(C(N)=O)ccc21`, the Activity in data set [4] is recorded as 93.8%; in [10], 97.4%. The results for the RLU in [5] and in data set [7] were 97.8 and 0.8, respectively. Moreover, the result in data set [24], in data set [25], in data set [26] and in [27] was Active.

For the compound `CCn1nc(C)cc1C(=O)Nc1nc2cc(C(=O)OC)ccc2n1CCCCn1c(NC(=O)c2cc(C)nn2CC)nc2cc(C(=O)OC)ccc21`, the Activity in data set [4] is 117.9%; in data set [10], 122%. For the same compound, the RLU in data set [5] and in [7] was 0.8 throughout.
